Source: patent publication US8198293B2, “Oxymatrine compositions and related methods for treating and preventing chronic infectious diseases” (priority 2008, dated 2012)

Experiments:
Type in all cases: in vivo, human
[1] = system: Mycobacterium avium complex (MAC); experiment: Case report: Mycobacterium avium complex infection of the lung
Procedure: A person with known history of Mycobacterium avium complex (MAC) infection of the lung and bronchiectasis for several years was treated with clarithromycin, ethambutol, ciprofloxacin and rifabutin for about five years. […] Intravenous amikacin was added following right middle and left lingula lobectomy. In spite of the above therapy, sputum and repeat bronchial washing obtained by bronchoscopy grew MAC within three weeks. A computed tomography scan of the chest remained unchanged except for the post-surgical changes.
Because of persistent positive cultures despite the four drug therapies, the patient was started on oxymatrine, which they tolerated well. […] Sputum became clear in color then resolved. About two months after the start of oxymatrine, the patient had fevers, flu-like symptoms, increase in non-productive cough, bilateral uveitis and elevation of liver enzymes to 3.5 times normal values. The symptoms lasted two weeks and resolved after tapering dose of oxymatrine to 200 mg bid. Liver enzymes returned to normal within six weeks. […] The anti-MAC medications were discontinued after […] of oxymatrine therapy. The dose of oxymatrine was tapered to 100 mg tid at four and a half months of therapy and then stopped after six months of total therapy. The patient felt well at the six month follow-up.

[2] = system: chronic enterovirus infection / chronic fatigue; experiment: Case reports: treatment of chronic fatigue (Examples 2-5)
Procedure: A person with episodes of diarrhea while traveling to Tonga developed severe respiratory infection soon thereafter. The symptoms consisted of fevers to 105° F., night sweats, diffuse myalgia, tachycardia, fatigue, sinus congestion and cough, and unresponsiveness to antibiotics. The patient developed profound fatigue thereafter and went on total disability three months after the onset of symptoms. Initial Coxsackie B virus (CBV) 3, CVB4 and echovirus 9 antibody titers were 1:320, 1:160, 1:80 (normal <1:10), respectively.
The patient could not work for the next 18 months. They were started on oxymatrine at 300 mg twice a day (bid). After taking oxymatrine for two months, they were able to take short walks, but still exhausted after one hour of activity requiring five hour naps. At the end of three months of therapy, they started having fevers of 104-105° F. for several days with marked decrease in diffuse myalgia. […] CVB3, CVB4 and echovirus antibody three months after therapy were 1:160, 1:160 and 1:20, respectively.
A person who had recurrent episodes of debilitating fatigue became totally incapacitated after approximately 17 years. […] They went into remission but relapsed nine months later after developing a minor upper respiratory infection. They improved minimally after several months of bed rest, but was barely able to work six hours per day. They had brain fog, myalgia ( 7/10 pain) and was barely able to walk even 1-2 blocks.
Three days after taking oxymatrine at a dose of 300 mg bid, the myalgia intensified ( 10/10 pain), especially one hour after taking the pills. One week after starting oxymatrine, routine laboratory tests including CBC, chemistry panel and creatine phosphokinase (CPK) were normal. They continued having significant fatigue and myalgia for the next three weeks, but the symptoms resolved one week after stopping the medication. Mild increase in myalgia recurred three days after resuming oxymatrine, but resolved after continuing the medication for the next two weeks. The patient felt well at the end of three months with minimal discomfort in a few muscle groups.
Severe myalgia recurred after resuming vigorous exercise for three weeks while taking oxymatrine. They had to stop exercise for the two months allowing cessation of myalgia. After taking oxymatrine for six months, the patient felt well. Over the next six months after stopping the medication, the patient continuously performed heavy physical activities without significant difficulty. After developing another episode of upper respiratory symptoms, their symptoms relapsed. They have resumed oxymatrine but experienced increasing myalgia as the fatigue improved.
A person with a known history of frequent respiratory infections and vasovagal syncope developed respiratory infection, which was followed by bedridden fatigue. Enteroviral protein was detected in the stomach biopsy consistent with chronic enterovirus infection. […] After vigorous exercise, they would still have relapses of bedridden fatigue for one day but continued to work 10-12 hours per day for the next 12 months, walking two miles per day. Laboratory tests were normal while on therapy.
A person developed debilitating fatigue, sore throat, oral ulcers, vertigo, headaches and cognitive dysfunction two months after having a flu-like illness. […] Approximately four years later, the patient started taking oxymatrine. After an initial increase of gastrointestinal symptoms for the first two weeks, the patient tolerated 500 mg per day of oxymatrine.
The symptoms continued for two weeks and resolved after stopping oxymatrine. […] They continued to improve for 12 months after taking the medication.

enterovirus = experiment: Case report: acute enterovirus infection of the gastrointestinal tract; conditions: Example 10 patient, 200 mg bid, after ten days
From the text: A person developed subacute onset of severe fatigue, nausea, anorexia and progressive weight loss of 20 pounds following an upper respiratory infection.

[3] = system: Varicella-Zoster Virus (VZV); experiment: Case report: chronic recurrent Varicella-Zoster Virus infection (shingles); conditions: Example 9 patient, 200 mg bid
Procedure: A person developed recurrent shingles after multiple episodes of sinus infections and sinus surgeries. They also had chronic indigestion and nausea. Fatigue became so severe that they were bedridden for several years.
Coxsackievirus B4 antibody was 1:320. […] The patient was started on oxymatrine 200 mg bid.

In the case of O=C1CCC[C@@H]2[C@H]3CCC[N@+]4([O-])CCC[C@@H](CN12)[C@@H]34 [oxymatrine], the “elevation of liver enzymes” value ([1]; about two months after start, returned to normal within six weeks after dose tapering to 200 mg bid) is reported as 3.5 times normal values, the “repeat computed tomography scans of the chest” value ([1]; in vivo) is reported as “healing and calcifications of the lesions” and the “repeat bronchial washing culture” value ([1]; six months after onset of oxymatrine therapy, with anti-MAC medications) is reported as “no growth of MAC”. For the same compound, the night sweats ([1]; within two months) was “decreased from twice a week to once every two weeks”, the relapse after therapy ([2]; Example 2 patient) was “had not relapsed for at least one year” and the clinical outcome ([2]; Example 2 patient, three months after finishing the medication) was “went back to full-time work”. For the same compound, the “laboratory studies including CBC and complete chemistry panel during therapy” value ([2]; Example 2 patient, calcium resolved after stopping hydrochlorothiazide) was “normal except mildly elevated calcium levels”, the clinical outcome ([2]; Example 3 patient, after taking oxymatrine for six months) was “felt well” and the “routine laboratory tests including CBC, chemistry panel and CPK” value ([2]; Example 3 patient, one week after starting oxymatrine) was “normal”. The myalgia pain score ([2]; Example 3 patient, three days after starting 300 mg bid, 7/10 before) was 10/10, the “laboratory tests while on therapy” value ([2]; Example 4 patient) was “normal” and the tolerability ([2]; Example 4 patient) was “tolerated well without any adverse reactions”. The clinical outcome ([2]; Example 4 patient, after taking the medication for six weeks) was “returned to full-time work”, the clinical outcome ([2]; Example 5 patient, three months later) was “able to return to part-time work and regular exercise” and the symptoms during therapy ([2]; Example 5 patient, two months on 500 mg per day, resolved after stopping oxymatrine) was “severe diffuse ulcerations of the mouth mucosa, increasing headache, sinus congestion and severe myalgia”. For the same compound, the clinical outcome (enterovirus) was “resumed their normal activity”, the outbreaks of shingles [3] was “less often and not as severe” and the clinical outcome ([3]; three months) was “went back to full-time work”.
